Source: PMC9051119 (RSC Advances, 2020)

Legend:
[1] = ref unpublished data, cited from earlier work
[2] = weakly basic APIs; cited from earlier work
[3] = Equilibrium solubility in model lipid-based formulations; conditions: for Miscibility in MC-SEDDS (MCF) / Miscibility in LC-SEDDS (LCF): result in words; for Miscibility in LC-SEDDS (LCF) / Solubility in LC-SEDDS: long chain SEDDS
[4] = Long term storage stability; conditions: >6 months at −20 °C

Structure (SMILES): C(=Cc1ccccc1)CN1CCN(C(c2ccccc2)c2ccccc2)CC1.CCCCC(CC)COC(=O)CC(C(=O)OCC(CC)CCCC)S(=O)(=O)O [Cinnarizine docusate]
- Miscibility in LC-SEDDS ([1]; long chain SEDDS): miscible
- Miscibility in MC-SEDDS ([1]; medium chain SEDDS): miscible

Structure (SMILES): C(=C\c1ccccc1)/CN1CCN(C(c2ccccc2)c2ccccc2)CC1 [Compound 1, cinnarizine]
- pKa [2]: > 8

Structure (SMILES): C(=C\c1ccccc1)/CN1CCN(C(c2ccccc2)c2ccccc2)CC1 [Compound 1b, cinnarizine]
- Miscibility in MC-SEDDS (MCF) ([3]; medium chain SEDDS): miscible

Structure (SMILES): C(=C\c1ccccc1)/CN1CCN(C(c2ccccc2)c2ccccc2)CC1 [Compound 1c, cinnarizine]
- Miscibility in MC-SEDDS (MCF) ([3]; medium chain SEDDS): miscible

Structure (SMILES): C(=C\c1ccccc1)/CN1CCN(C(c2ccccc2)c2ccccc2)CC1 [Compound 1d, cinnarizine]
- Miscibility in LC-SEDDS (LCF) [3]: miscible
- Miscibility in MC-SEDDS (MCF) ([3]; medium chain SEDDS): miscible

Structure (SMILES): C(=C\c1ccccc1)/CN1CCN(C(c2ccccc2)c2ccccc2)CC1 [Compound 1g, cinnarizine]
- Solubility in LC-SEDDS ([3]; value of the main text): 17 mg/g

Structure (SMILES): C(=C\c1ccccc1)/CN1CCN(C(c2ccccc2)c2ccccc2)CC1 [Compound 1h, cinnarizine]
- Crystallization after long term storage [4]: showed signs of crystallization

Structure (SMILES): C(=C\c1ccccc1)/CN1CCN(C(c2ccccc2)c2ccccc2)CC1 [Compound 1i, cinnarizine]
- Miscibility in MC-SEDDS (MCF) ([3]; medium chain SEDDS): miscible

Structure (SMILES): C(=C\c1ccccc1)/CN1CCN(C(c2ccccc2)c2ccccc2)CC1 [Compound 1j, cinnarizine]
- Miscibility in MC-SEDDS (MCF) ([3]; medium chain SEDDS): miscible

Structure (SMILES): C(=C\c1ccccc1)/CN1CCN(C(c2ccccc2)c2ccccc2)CC1 [Compound 1k, cinnarizine]
- Miscibility in LC-SEDDS (LCF) [3]: miscible
- Miscibility in MC-SEDDS (MCF) ([3]; medium chain SEDDS): miscible

Structure (SMILES): CCCCN(CCCC)CC(O)c1cc(Cl)cc2c1-c1ccc(Cl)cc1/C2=C/c1ccc(Cl)cc1 (stereo not shown) [Compound 2, lumefantrine]
- pKa [2]: > 8

Structure (SMILES): CCCCN(CCCC)CC(O)c1cc(Cl)cc2c1-c1ccc(Cl)cc1/C2=C/c1ccc(Cl)cc1 (stereo not shown) [Compound 2h, lumefantrine]
- LBF solubility enhancement compared to the free base ([3]; compared to the free base form): up to 18 fold
- Miscibility in LC-SEDDS (LCF) [3]: miscible
- Miscibility in MC-SEDDS (MCF) ([3]; medium chain SEDDS): miscible

Structure (SMILES): CCCCN(CCCC)CC(O)c1cc(Cl)cc2c1-c1ccc(Cl)cc1/C2=C/c1ccc(Cl)cc1 (stereo not shown) [Compound 2k, lumefantrine]
- Solubility in LC-SEDDS ([3]; value of the main text): 53 mg/g
- Solubility in MC-SEDDS ([3]; medium chain SEDDS, value of the main text): 66 mg/g
